Several values for one entry are separate records, joined by “and”; a condition that tells them apart may be missing. Equal entries are not always repeated.
B1: purified FAD-GDH (Aspergillus oryzae) (protein)
chain: SPAGRAKNTTTYDYIVVGGGTSGLVVANRLSENPDVSVLLLEAGASVFNNPDVTNANGYGLAFGSAIDWQYQSINQSYAGGKQQVLRAGKALGGTSTINGMAYTRAEDVQIDVWQKLGNEGWTWKDLLPYYLKSENLTAPTSSQVAAGAAYNPAVNGKEGPLKVGWSGSLASGNLSVALNRTFQAAGVPWVEDVNGGKMRGFNIYPSTLDVDLNVREDAARAYYFPYDDRKNLHLLENTTANRLFWKNGSAEEAIADGVEITSADGKVTRVHAKKEVIISAGALRSPLILELSGVGNPTILKKNNITPRVDLPTVGENLQDQFNNGMAGEGYGVLAGASTVTYPSISDVFGNETDSIVASLRSQLSDYAAATVKVSNGHMKQEDLERLYQLQFDLIVKDKVPIAEILFHPGGGNAVSSEFWGLLPFARGNIHISSNDPTAPAAINPNYFMFEWDGKSQAGIAKYIRKILRSAPLNKLIAKETKPGLSEIPATAADEKWVEWLKANYRSNFHPVGTAAMMPRSIGGVVDNRLRVYGTSNVRVVDASVLPFQVCGHLVSTLYAVAERASDLIKEDAKSA

What was measured:
purified FAD-GDH [1] = experiment: Inhibition test with 1,10-phenanthroline (DCIP/1-methoxy PMS); type: biochemical, Aspergillus oryzae
Procedure: The enzymatic activities were measured in the control group and the test group (group in which 1,10-phenanthroline was added) and both activities were compared with each other. Thereby, the inhibition effect of 1,10-phenanthroline on purified FAD-GDH was examined.
Subsequently, 0.05 mL of enzyme solution was added, the change of absorbance in 600 nm of DCIP (ΔABS/min) was measured, and the enzymatic activity was calculated by the following calculation formula.
In the above-mentioned measurement method, the enzymatic activities when 1,10-phenanthroline was added so that the final concentration became 1 mM, 5 mM, 10 mM, 25 mM, and 50 mM were measured, respectively.

[2] = tested on: FAD-GDH derived from Aspergillus oryzae IAM2603; experiment: Substrate specificity 2, relative activity (PMS/DCIP); type: biochemical; conditions: activity with D-glucose assumed 100%; dialyzed culture filtrate; MOPS pH 7.0, 25° C.
Procedure: (§1) 10 mL of each culture filtrate derived from Aspergillus oryzae BB-56, IAM2603, IAM2628, IAM2683, IAM2736, IAM2706, or NBRC30113 was placed in a dialysis membrane 36 and dialyzed in 10 mM KH2PO4—NaOH at 4° C. over night.
(§2) By measuring the decrease of DCIP by the reduction reaction in the absorbance at 600 nm, the FAD-GDH activity was measured. The activity with respect to each substrate was calculated when the activity with respect to D-glucose as a substrate was assumed to be 100% (Table 4). From the results, the substrate specificities of FAD-GDH derived from Aspergillus oryzae BB-56, IAM2603, IAM2628, IAM2683, IAM2736, IAM2706, or NBRC30113 are the same as each other.

[3] = tested on: FAD-GDH derived from Aspergillus oryzae IAM2706; experiment: as above; type: biochemical; conditions: activity with D-glucose assumed 100%; dialyzed culture filtrate; MOPS pH 7.0, 25° C.
Procedure: as §1, §2

[4] = tested on: FAD-GDH derived from Aspergillus oryzae IAM2628; experiment: as above; type: biochemical; conditions: activity with D-glucose assumed 100%; dialyzed culture filtrate; MOPS pH 7.0, 25° C.
Procedure: as §1, §2

[5] = tested on: FAD-GDH derived from Aspergillus oryzae IAM2736; experiment: as above; type: biochemical; conditions: activity with D-glucose assumed 100%; dialyzed culture filtrate; MOPS pH 7.0, 25° C.
Procedure: as §1, §2

[6] = tested on: FAD-GDH derived from Aspergillus oryzae IAM2683; experiment: as above; type: biochemical; conditions: activity with D-glucose assumed 100%; dialyzed culture filtrate; MOPS pH 7.0, 25° C.
Procedure: as §1, §2

[7] = tested on: FAD-GDH derived from Aspergillus oryzae BB-56; experiment: as above; type: biochemical; conditions: activity with D-glucose assumed 100%; dialyzed culture filtrate; MOPS pH 7.0, 25° C.
Procedure: as §1, §2

[8] = tested on: FAD-GDH derived from Aspergillus oryzae NBRC30113; experiment: as above; type: biochemical; conditions: activity with D-glucose assumed 100%; dialyzed culture filtrate; MOPS pH 7.0, 25° C.
Procedure: as §1, §2

purified FAD-GDH [9] = biological target: purified FAD-GDH (Aspergillus oryzae, UniProt A0A1S9DW10); experiment: Substrate specificity 1 of purified FAD-GDH (PMS/NTB); type: biochemical, Aspergillus oryzae BB-56; conditions: reaction rate with respect to D-glucose assumed 100%, PIPES-NaOH pH 6.5, 37° C.
Procedure: Thus, the enzymatic activity was measured. The relative activity with respect to each substrate was calculated when the reaction rate with respect to D-glucose was assumed to be 100% (Table 3).

[10] = Investigation of temperature for stability; type: physicochemical
Procedure: Herein, the optimum pH is a value measured in, for example, Mcllvaine buffer as mentioned below in the Examples. The optimum temperature is also a value measured in, for example, PIPES-NaOH buffer (pH 6.5). Furthermore, the enzyme maintains 80% or more of the activity when it is treated under a certain pH condition at 37° C. for 30 minutes, the enzyme can be “stable” in the pH condition. […] The Km value and the isoelectric point can be measured and evaluated by the method described below in the Examples (columns 8 and 6).
Purified FAD-GDH was diluted to 1 U/mL with 50 mM PIPES-NaOH buffer (pH 6.5) containing 1 mM calcium chloride, 0.1% (w/v) Triton X-100, and 0.1% (w/v) bovine serum albumin and treated at each designated temperature (5, 30, 40, 50, or 60° C.) for 20 minutes. Each treated solution was cooled in ice and then it was diluted with 50 mM PIPES-NaOH buffer (pH 6.5) containing 1 mM calcium chloride, 0.1% (w/v) Triton X-100, 0.1% (w/v) bovine serum albumin, and the FAD-GDH activity was measured in the above-mentioned method 1. As a control, FAD-GDH of the not thermally treated enzyme was measured. […]

[11] = Investigation of pH for stability; type: physicochemical; conditions: pH 3.0 to pH 7.0, 37° C., 30 minutes
Procedure: Herein, the optimum pH is a value measured in, for example, Mcllvaine buffer as mentioned below in the Examples. The optimum temperature is also a value measured in, for example, PIPES-NaOH buffer (pH 6.5). Furthermore, the enzyme maintains 80% or more of the activity when it is treated under a certain pH condition at 37° C. for 30 minutes, the enzyme can be “stable” in the pH condition. Similarly, when the activity of the enzyme is not substantially deteriorated (that is to say, about 100% of the activity is maintained) after it is treated under a certain temperature condition in a suitable buffer solution (for example, PIPES-NaOH buffer, pH 6.5) for 20 minutes, the enzyme can be “stable” in the temperature condition. The Km value and the isoelectric point can be measured and evaluated by the method described below in the Examples (columns 8 and 6).
Each treatment solution was appropriately diluted with 0.2M KH2PO4—NaOH buffer (pH 6.5) and the FAD-GDH activity was measured by the above-mentioned method 1. As a control, the activity of purified FAD-GDH, which was diluted with 0.1M KH2PO4—NaOH buffer (pH 6.5) and stored in ice, was also measured. As a result, FAD-GDH maintains 80% or more of the activity at least in the range from pH 3.0 to pH 7.0, showing that FAD-GDH is stable in the range from pH 3.0 to pH 7.0 (FIG. 7).

[12] = phosphate buffer pH 7.0, 37° C.; for GO activity: 500 nm
Procedure: D-glucose+O2→D-glucono-δ-lactone+H2O2 Reaction 1
H2O2+4-aminoantipyrine+phenol→quinonimine dye+4H2O Reaction 2
H2O2 produced with GO in the reaction 1 is used in a production reaction of quinonimine dye with peroxidase in the reaction 2. By measuring the quinonimine dye in the absorbance in 500 nm, the GO activity was measured. The amount of enzyme oxidizing 1 μmole of D-glucose for one minute in the reaction condition at 37° C. is defined as one unit of the GO activity.
2.0 mL of phenol solution (0.1M phosphate buffer (pH 7.0) containing 0.152% phenol and 0.152% Triton X-100), 0.5 mL of 0.555 mol/L D-glucose solution, 0.5 mL of 25 U/mL peroxidase (AMANO ENZYME INC) solution, and 0.1 mL of 4 mg/mL 4-aminoantipyrine solution were mixed with each other and kept at 37° C. for 5 minutes. […] Two minutes and 5 minutes after the reaction was started, the absorbance in 500 nm was measured. Furthermore, as enzyme blank, 0.1M phosphate buffer (pH 7.0) was added instead of an enzyme solution, similarly the absorbance was measured. The GO activity was calculated from the following calculation formula.
In the formula, “3” denotes a reaction time, “12.88” denotes molecular absorption constant (mM) of the quinonimine dye, “1/2” denotes a coefficient based on the fact that 1 mole of quinonimine dye is produced from 2 mole of H2O2, “3.2” denotes a final liquid amount of the reaction solution, “0.1” is sample amount (mL), and “Dm” is dilution ratio, respectively.

[13] = Measurement of isoelectric point (glycerol density gradient electrophoresis); type: physicochemical
Procedure: This dialysis sample was subjected to glycerol density gradient electrophoresis. A carrier ampholyte having a column volume of 110 mL (Pharmalyte™ 3-10 for IEF (Amersham Biosciences AB), average final concentration of 1%) was used to allow an electric current to pass at 5° C. at a constant voltage of 400V for 48 hours. After passing current, samples were recovered at the flow rate of about 2 mL/min (one fraction was made to be 1.5 mL). When pH and FAD-GDH activity of each fraction were measured, pI of FAD-GDH derived from Aspergillus oryzae BB-56 was 6.4 (FIG. 9).

[14] = PMS/NTB, pH 6.5, 37° C.
Procedure: 2.55 mL of 50 mM PIPES-NaOH buffer (pH 6.5) containing 0.22% (w/v) Triton X-100, 0.1 mL of 1M D-glucose solution, 0.2 mL of 3 mM PMS solution, and 0.1 mL of 6.6 mM NTB solution were mixed with each other and kept at 37° C. for 5 minutes. […] Diformazan produced by the enzyme reaction was measured in the absorbance in 570 nm and the amount Diformazan produced per minute was measured. Thus, the enzymatic activity was measured.

[15] = Investigation of optimum temperature; type: biochemical; conditions: PIPES-NaOH buffer pH 6.5, 30-65° C.
Procedure: Thus, the enzymatic activity was measured. […] (FIG. 6).

[16] = substrate: OC[C@H]1OC(O)[C@H](O)[C@@H](O)[C@@H]1O; experiment: Measurement of Michaelis-Menten Km constant (Lineweaver-Burk plot); type: biochemical, Aspergillus oryzae BB-56; conditions: other: purified FAD-GDH, PIPES-NaOH pH 6.5, 37° C.

Molecule	relative activity, IAM2603 [2]	relative activity, IAM2706 [3]	relative activity, IAM2628 [4]	relative activity, IAM2736 [5]	relative activity, IAM2683 [6]	relative activity, BB-56 [7]	relative activity, NBRC30113 [8]	relative activity (purified FAD-GDH [9])	also measured
c1cnc2c(c1)ccc1cccnc12 [1,10-phenanthroline]	–	–	–	–	–	–	–	–	Inhibition effect (purified FAD-GDH [1]; final concentration of 1,10-phenanthroline 5 mM): 21%; Inhibition effect (purified FAD-GDH [1]; final concentration of 1,10-phenanthroline 10 mM): 38%
O=C(CO)[C@@H](O)[C@H](O)[C@H](O)CO [fructose]	0%	0%	1.40%	0%	0%	0%	0%	–	–
O=C[C@H](O)[C@@H](O)[C@@H](O)[C@H](O)CO [galactose]	–	–	–	–	–	–	–	0.349%	–
maltopentaose	–	–	–	–	–	–	–	4.55%	–
OC[C@H]1O[C@H](O[C@H]2[C@H](O)[C@@H](O)C(O)O[C@@H]2CO)[C@H](O)[C@@H](O)[C@@H]1O (mixture of isomers) [maltose]	0%	0%	0%	0%	0%	0%	0%	0.582%	–
maltohexaose	–	–	–	–	–	–	–	0.479%	–
O=C[C@H](O)[C@@H](O)[C@H](O)CO [xylose]	16.1%	16.1%	16.4%	14.6%	17.3%	17.6%	17.6%	22.7%	–
flavin adenine dinucleotide-binding glucose dehydrogenase	–	–	–	–	–	–	–	–	activity maintained after thermal treatment ([10]; 40° C. or less, 20 minutes, pH 6.5): ~100%; temperature for stability ([10]; treated 20 minutes in PIPES-NaOH pH 6.5, stable = about 100% of activity maintained): ≤ 40 °C; activity maintained after pH treatment [11]: ≥ 80%; GO activity (in words) [12]: does not substantially have the GO activity; GO activity [12]: 0.0025 U/mL; isoelectric point (pI) ([13]; listed as FAD-GDH): about 6.4; isoelectric point (pI) ([13]; listed as FAD-GDH derived from Aspergillus oryzae BB-56): 6.4; GDH activity [14]: 119 U/mL; optimum temperature [15]: about 60 °C
O=CC[C@@H](O)[C@H](O)[C@H](O)CO [2-deoxyglucose]	29.0%	33.9%	34.2%	31.3%	32.7%	35.1%	35.3%	–	–
glucose oxidase [GO]	–	–	–	–	–	–	–	–	GO activity [12]: 67.8 U/mL; GDH activity [14]: 8.86 U/mL; GDH activity (in words) [14]: also has the GDH activity
maltotriose	–	–	–	–	–	–	–	0.239%	–
B1	–	–	–	–	–	–	–	–	Km [16]: 8.2 mM and 8 mM
